Paper PMC3160329, “Functional Dissection of the Proton Pumping Modules of Mitochondrial Complex I” (PLoS Biology, 2011)

Biological target: T1, subcomplex nb8mΔ (Yarrowia lipolytica, UniProt Q9B6E8+Q9UUT7+Q9UUU1+Q9UUU2)
T1 construct: gene nucm; complex I subcomplex lacking 14 subunits of the PD module (incl. ND4, ND5, NB8M); about 680 kDa; C-terminal His tag on NUGM; purified, asolectin proteoliposomes; with NADH-ubiquinone oxidoreductase 75 kDa subunit; NADH-ubiquinone oxidoreductase 30 kDa subunit; NADH-ubiquinone oxidoreductase 24 kDa subunit; NADH-ubiquinone oxidoreductase 23 kDa subunit; NADH-ubiquinone oxidoreductase chain 2; NADH-ubiquinone oxidoreductase chain 3; NADH-ubiquinone oxidoreductase chain 6; NADH-ubiquinone oxidoreductase chain 4L
Experiment: NADH:DBQ oxidoreductase activity, NADH oxidation
Assay type: biochemical
Details: 100 µM DBQ, 100 µM NADH, pH 7.2, 30 °C, proteoliposomes

| Compound | NADH:DBQ oxidoreductase activity, NADH oxidation (electron acceptor) | NADH:DBQ oxidoreductase activity, NADH oxidation (electron donor) |
| --- | --- | --- |
| CCCCCCCCCCC1=C(C)C(=O)C(OC)=C(OC)C1=O [DBQ, decylubiquinone] | addition of NADH and the ubiquinone analogue DBQ to subcomplex nb8mΔ proteoliposomes | – |
| NC(=O)C1=CN([C@@H]2O[C@H](COP(=O)(O)OP(=O)(O)OC[C@H]3O[C@@H](n4cnc5c(N)ncnc54)[C@H](O)[C@@H]3O)[C@@H](O)[C@H]2O)C=CC1 [NADH] | – | addition of NADH and the ubiquinone analogue DBQ to subcomplex nb8mΔ proteoliposomes |
